# Reference: patent publication EP4763206A1, “AGENT FOR SUPPRESSING AGGREGATION OF TDP-43, AGENT FOR SUPPRESSING CELL DEATH OF CELLS IN WHICH TDP-43 IS OVEREXPRESSED, AND AGENT FOR PREVENTING OR TREATING DISEASES ASSOCIATED WITH AGGREGATION OF TDP-43” (Socium Inc., priority 2023, dated 2025)
# “Also recorded” adds a separate entry of the source. Like-named read-outs stand apart in the source and are kept apart here.
# Assays:
# [1] = cited from earlier work
# [2] = cited from earlier work; remark: listed apart in the source
# [3] = tested on: TDP-43; test: Soluble/insoluble TDP-43 fractions in motor neurons derived from iPS cells of healthy subjects, western blot (Reference Example 4); format: cell-based, human; conditions: 10 µmol/L, cultured for 20 days (Figure 7)
# Protocol: 100 µL of an EHS-gel basement membrane matrix (commercially available from FUJIFILM Wako Pure Chemical Corporation) was added to 12.5 mL of DMEM (Dulbecco's Modified Eagle Medium, commercially available from FUJIFILM Wako Pure Chemical Corporation) and mixed, and the mixture was added to a 24-well plate at 600 µL per well. The plate was left at room temperature for 2 hours, and the solution was then removed from the wells. Next, 600 µL of DMEM was added to each well, and the plate was left at room temperature for 2 hours.
# Motor neurons derived from iPS cells of healthy subjects and motor neurons derived from iPS cells of ALS patients were obtained from iXCells Biotechnologies. The motor neurons were quickly thawed in a thermostatic oven at 37°C and suspended in a motor neuron maintenance culture medium (iXCells Biotechnologies). […]
# The soluble protein fractions and the insoluble protein fractions were subjected to SDS-PAGE, and the proteins were transferred to a PVDF membrane. […] Next, the PVDF membrane was washed three times with a buffer solution, 1 mL of a luminescence reagent (ImmunoStar LD, commercially available from FUJIFILM Wako Pure Chemical Corporation) was then used to induce luminescence from the labeled secondary antibodies, and the PVDF membrane was imaged.
# [4] = tested on: Neuro2a cells; test: Suppression of cell death in TDP-43-transfected Neuro2a cells (Reference Example 2); format: cell-based, Mouse; conditions: 10 to 10,000 nmol/L added 5 hours after transfection; evaluated 7 days after transfection (Figures 3, 4)
# Protocol: Neuro2a cells were seeded on a dish. On the first day after seeding, differentiation into neurons was initiated. On the fourth day after seeding, cells were transfected with the TDP-43 gene. […] In addition, as a control, 10 nmol/L, 50 nmol/L, 100 nmol/L, 500 nmol/L, 1,000 nmol/L, 5,000 nmol/L, or 10,000 nmol/L of ropinirole was added to a culture medium.
# The proportion of dead cells was evaluated 7 days after the cells were transfected with the TDP-43 gene.
# [5] = tested on: TDP-43; test: Soluble/insoluble TDP-43 fractions in TDP-43-transfected Neuro2a cells, western blot (Reference Example 3); format: cell-based, Mouse; conditions: 10 µmol/L added 6 hours after transfection; for number of soluble fractions versus insoluble fractions of TDP-43: cultured for 12 hours (Figure 5); for proportion of insoluble fractions based on total of soluble and insoluble fractions of TDP-43: cultured for 12 hours (Figure 6)
# Protocol: Mouse neuroblastoma (Neuro2a) cells were seeded on a dish. The Neuro2a cells were cultured in a culture medium containing DMEM+10% FBS at 37°C in the presence of 5% CO2. On the first day after seeding, differentiation into neurons was initiated. Differentiation into neurons was performed in a culture medium containing DMEM+2% FBS+20 µmol/L retinoic acid. On the fourth day after seeding, cells were transfected with synthesized TDP-43 mRNA by a lipofection method. Cells were sampled at 6 hours, 9 hours, 12 hours, 15 hours, 18 hours, and 21 hours after transfection. […] For sampling, cells were lysed in an RIPA buffer and centrifuged at 22,000×g for 30 minutes at 4°C, the supernatant was used as the soluble fraction, the precipitate was used as the insoluble fraction, and equal volumes of a 2×SDS sample buffer were added to the respective fractions and heated at 95°C for 5 minutes to prepare electrophoresis samples. The electrophoresis samples were subjected to electrophoresis using a polyacrylamide gel, TDP-43 was then transferred to a PVDF membrane. TDP-43 was detected through chemiluminescence using anti-TDP-43 antibodies as primary antibodies and HRP-conjugated anti-rabbit antibodies as secondary antibodies. […] The insoluble fractions of TDP-43 indicate the aggregation of TDP-43.
# Neuro2a cells were seeded on a dish. On the first day after seeding, differentiation into neurons was initiated. On the fourth day after seeding, cells were transfected with the TDP-43 gene.
# [6] = Reported human pharmacokinetics of D-cycloserine; format: in vivo, humans; conditions: estimated; 15 mg orally administered twice daily
# [7] = tested on: Neuro2a cells; test: Cell death suppression by D-cycloserine combined with edaravone in TDP-43-transfected Neuro2a cells (Example 1); format: cell-based; conditions: Mus musculus, N2a
# Protocol: Neuro2a cells were seeded on a dish. On the first day after seeding, differentiation into neurons was initiated. On the fourth day after seeding, cells were transfected with the TDP-43 gene. […] The proportion of dead cells was evaluated 7 days after the cells were transfected with the TDP-43 gene. […] Here, the relative viability indicates the proportion of the number of viable cells overexpressing TDP-43 based on 100% of the number of viable cells not overexpressing TDP-43. […] The CI was calculated using the following formula. […] CI=1 indicates an additive effect, CI>1 indicates an antagonistic effect, and CI<1 indicates a synergistic effect.
# [8] = tested on: TDP-43; test: Soluble/insoluble TDP-43 fractions in motor neurons derived from iPS cells of ALS patients, western blot (Reference Example 4); format: cell-based, human; conditions: 10 µmol/L; for bands for insoluble fractions of TDP-43: cultured for 20 days (Figure 7); for average proportion of insoluble fractions of TDP-43: cultured for 20 days, three experiments, untreated ALS about 46.1%, healthy about 7.4%
SMILES,side effects ([1]; 150 mg administered to humans),side effects ([1]; 250 mg administered to humans to treat tuberculosis),"Cmax ([2]; 15 mg orally administered to humans, read-out: maximum blood concentration (Cmax)) [µM]",half-life ([2]; in vivo),bands for insoluble fractions of TDP-43 [3],cell death in cells transfected with the TDP-43 gene [4],number of soluble fractions versus insoluble fractions of TDP-43 [5],proportion of insoluble fractions based on total of soluble and insoluble fractions of TDP-43 [5],trough value [6] [nmol/L],"EC50 ([7]; read-out: EC50 of the cell death suppressory effect of D-cycloserine, at 0 nmol/L of edaravone) [nM]","EC50 ([7]; read-out: EC50 of the cell death suppressory effect of D-cycloserine, at 10 nmol/L of edaravone) [nM]","EC50 ([7]; read-out: EC50 of the cell death suppressory effect of D-cycloserine, at 30 nmol/L of edaravone) [nM]","EC50 ([7]; read-out: EC50 of the cell death suppressory effect of D-cycloserine, at 100 nmol/L of edaravone) [nM]","EC50 ([7]; read-out: EC50 of the cell death suppressory effect of D-cycloserine, at 300 nmol/L of edaravone) [nM]","EC50 ([7]; read-out: EC50 of the cell death suppressory effect of D-cycloserine, at 1,000 nmol/L of edaravone) [nM]",bands for insoluble fractions of TDP-43 [8],average proportion of insoluble fractions of TDP-43 [8]
"N[C@@H]1CONC1=O [D-cycloserine, (4R)-4-Amino-1,2-oxazolidin-3-one]",headaches,serious side effects such as epileptiform seizure and mental confusion,~5.6,about 10 hours,bands for insoluble fractions were unclear,cell death was inhibited; also recorded: exhibited an effect of inhibiting cell death in a concentration-dependent manner,the number of soluble fractions of TDP-43 was larger than the number of insoluble fractions of TDP-43,less than half,> 128,151,149,135,119,107,87.6,bands for insoluble fractions were unclear,about 17.4%
"N[C@H]1CONC1=O [L-cycloserine, (4S)-4-amino-1,2-oxazolidin-3-one]",–,–,–,–,–,exhibited an effect of inhibiting cell death in a concentration-dependent manner,the number of soluble fractions of TDP-43 was larger than the number of insoluble fractions of TDP-43,less than half,–,–,–,–,–,–,–,–,–
CCCN(CCC)CCc1cccc2c1CC(=O)N2 [ropinirole],–,–,–,–,bands for insoluble fractions were unclear,–,–,–,–,–,–,–,–,–,–,bands for insoluble fractions were unclear,about 19.3%
